Data reported in PubChem BioAssay (NCI).
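Five concentrations, 48 hours, 96-well plates. Definition used: TGI = concentration required for complete inhibition of growth.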

Experiments:
Experiment in all cases: NCI tumour cell line growth inhibition, 48 h
[1] = tested on: NCI/ADR-RES ovarian
[2] = tested on: RPMI-8226 leukemia
[3] = tested on: NCI-H460 lung
[4] = tested on: DU-145 prostate
[5] = tested on: SF-539 CNS
[6] = tested on: OVCAR-4 ovarian
[7] = tested on: TK-10 renal
[8] = tested on: EKVX NSCLC
[9] = tested on: HL-60(TB) leukemia
[10] = tested on: A549 NSCLC
[11] = tested on: HCC-2998 colon
[12] = tested on: HOP-62 NSCLC
[13] = tested on: MOLT-4 leukemia
[14] = tested on: HT29 colon
[15] = tested on: MCF7 breast
[16] = tested on: NCI-H522 lung
[17] = tested on: ACHN renal
[18] = tested on: HS 578T breast
[19] = tested on: SK-MEL-5 melanoma
[20] = tested on: A498 renal
[21] = tested on: OVCAR-3 ovarian
[22] = tested on: HOP-92 NSCLC
[23] = tested on: CAKI-1 renal
[24] = tested on: U251 CNS
[25] = tested on: K-562 leukemia
[26] = tested on: HCT-15 colon
[27] = tested on: HCT-116 colon
[28] = tested on: SF-268 CNS
[29] = tested on: OVCAR-8 ovarian
[30] = tested on: MDA-N
[31] = tested on: SW-620 colon
[32] = tested on: UACC-62 melanoma
[33] = tested on: SK-MEL-2 melanoma
[34] = tested on: MDA-MB-435
[35] = tested on: SF-295 CNS
[36] = tested on: SNB-75 CNS
[37] = tested on: 786-0 renal
[38] = tested on: NCI-H23 lung
[39] = tested on: T-47D breast
[40] = tested on: LOX IMVI melanoma
[41] = tested on: COLO 205 colon
[42] = tested on: IGROV1 ovarian
[43] = tested on: SNB-19 CNS
[44] = tested on: MDA-MB-231 breast
[45] = tested on: SK-OV-3 ovarian
[46] = tested on: OVCAR-5 ovarian
[47] = tested on: RXF 393 renal
[48] = tested on: UACC-257 melanoma
[49] = tested on: CCRF-CEM leukemia
[50] = tested on: UO-31 renal
[51] = tested on: MALME-3M melanoma
[52] = tested on: SK-MEL-28 melanoma
[53] = tested on: M14 melanoma
[54] = tested on: PC-3 prostate
[55] = tested on: BT-549 breast
[56] = tested on: SN12C renal
[57] = tested on: KM12 colon
[58] = tested on: SR leukemia

Molecule CC(=O)Oc1ccc2ccc(=O)oc2c1OC(C)=O has a TGI [1] of over 100 µM, a TGI [2] of over 100 µM and a TGI [3] of over 100 µM. It also gave a TGI [4] of over 100 µM, a TGI [5] of over 100 µM and a TGI [6] of over 100 µM. For the same molecule, the TGI [7] was over 100 µM, the TGI [8] was over 100 µM and the TGI [9] was 38.1 µM. The TGI [10] was over 100 µM, the TGI [11] was over 100 µM and the TGI [12] was over 100 µM. The TGI [13] was over 100 µM, the TGI [14] was over 100 µM and the TGI [15] was over 100 µM. For the same molecule, the TGI [16] was over 100 µM, the TGI [17] was over 100 µM and the TGI [18] was over 100 µM. It also gave a TGI [19] of 94.2 µM, a TGI [20] of over 100 µM and a TGI [21] of over 100 µM. For the same molecule, the TGI [22] was over 100 µM, the TGI [23] was over 100 µM and the TGI [24] was over 100 µM. For the same molecule, the TGI [25] was over 100 µM, the TGI [26] was over 100 µM and the TGI [27] was over 100 µM. The TGI [28] was over 100 µM, the TGI [29] was over 100 µM and the TGI [30] was over 100 µM. For the same molecule, the TGI [31] was over 100 µM, the TGI [32] was over 100 µM and the TGI [33] was over 100 µM. It also gave a TGI [34] of over 100 µM, a TGI [35] of over 100 µM and a TGI [36] of over 100 µM. For the same molecule, the TGI [37] was over 100 µM, the TGI [38] was over 100 µM and the TGI [39] was over 100 µM. The TGI [40] was over 100 µM, the TGI [41] was 63.1 µM and the TGI [42] was over 100 µM. The TGI [43] was over 100 µM, the TGI [44] was over 100 µM and the TGI [45] was over 100 µM. It also gave a TGI [46] of over 100 µM, a TGI [47] of 71.4 µM and a TGI [48] of over 100 µM. It also gave a TGI [49] of 46.1 µM, a TGI [50] of over 100 µM and a TGI [51] of over 100 µM. It also gave a TGI [52] of over 100 µM, a TGI [53] of over 100 µM and a TGI [54] of over 100 µM. For the same molecule, the TGI [55] was over 100 µM, the TGI [56] was over 100 µM and the TGI [57] was over 100 µM. For the same molecule, the TGI [58] was over 100 µM.
